The values below come from PubChem BioAssay (NCI).

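Each compound was tested at five concentrations against cells in 96-well plates for 48 hours. The concentration for 50% growth inhibition is given as GI50. At the TGI there is no net growth.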

Some test systems named below: EKVX NSCLC; HOP-92 NSCLC; MDA-MB-231 breast; MDA-N; MOLT-4 leukemia; OVCAR-5 ovarian; OVCAR-8 ovarian; RXF 393 renal; SK-MEL-5 melanoma; SW-620 colon; T-47D breast; BT-549 breast; SF-295 CNS; SK-OV-3 ovarian; UACC-62 melanoma.
What all share (assay): NCI anticancer screen, dose series, 48 h

For the molecule `COC(=O)c1cccc(C)c1C1CN=NC12Cc1c(ccc(C)c1C)C2=O` (stereo not drawn), the TGI was 57.9 µM in the assay with EKVX NSCLC; more than 100 µM in the assay on HOP-92 NSCLC; more than 100 µM in the assay with MDA-MB-231 breast; more than 100 µM in the assay with MDA-N; 86.7 µM with MOLT-4 leukemia; more than 100 µM with OVCAR-5 ovarian. The TGI with OVCAR-8 ovarian was more than 100 µM; in the assay with RXF 393 renal, 92.4 µM; in the assay with SK-MEL-5 melanoma it was 17.7 µM; in the assay on SW-620 colon, more than 100 µM; in the assay on T-47D breast it was 25.1 µM.

For `COC(=O)CC1CN(C(=O)OCc2ccccc2)C(C)(C)O1` (stereo not drawn), the TGI in the assay with BT-549 breast is 66.9 µM; with EKVX NSCLC, more than 100 µM; with HOP-92 NSCLC, more than 100 µM; in the assay with MDA-MB-231 breast, more than 100 µM; in the assay on MDA-N, more than 100 µM; with MOLT-4 leukemia it was more than 100 µM. Moreover, the TGI with OVCAR-5 ovarian, with OVCAR-8 ovarian, in the assay on RXF 393 renal, with SF-295 CNS, with SK-MEL-5 melanoma and in the assay on SK-OV-3 ovarian was more than 100 µM in each case. Moreover, the TGI in the assay on SW-620 colon and in the assay with UACC-62 melanoma was more than 100 µM in each case.

For `O=C(/C=C/c1c(O)c2ccccc2[nH]c1=O)CC(=O)C(=O)Nc1cccc(O)c1`, the TGI in the assay with BT-549 breast, with EKVX NSCLC, in the assay on HOP-92 NSCLC, in the assay on MDA-MB-231 breast, in the assay with MOLT-4 leukemia and with OVCAR-5 ovarian was more than 100 µM throughout. The TGI with OVCAR-8 ovarian, in the assay on SF-295 CNS, in the assay with SK-MEL-5 melanoma, in the assay on SK-OV-3 ovarian, in the assay with SW-620 colon and in the assay on T-47D breast was more than 100 µM each time. Further, in the assay with UACC-62 melanoma, the TGI is more than 100 µM.

`CSC1=N/C(=C\c2ccc(Cl)cc2)C(=O)N1CN1CCOCC1`: the TGI with EKVX NSCLC was more than 100 µM; with HOP-92 NSCLC it was 30.6 µM; with MDA-MB-231 breast it was more than 100 µM; in the assay with MDA-N, more than 100 µM; with MOLT-4 leukemia it was more than 100 µM; in the assay on OVCAR-5 ovarian it was more than 100 µM. Also, the TGI in the assay on OVCAR-8 ovarian is 61.6 µM; with SF-295 CNS, more than 100 µM; with SK-MEL-5 melanoma, more than 100 µM; with SK-OV-3 ovarian, more than 100 µM; in the assay on SW-620 colon, more than 100 µM; with UACC-62 melanoma, more than 100 µM.

For the molecule `CCOP(=O)(CCC(O)CNc1nc(N)nc(Cl)c1N=Nc1ccc(Cl)cc1)OCC` (stereo not drawn), the TGI in the assay with EKVX NSCLC was 40.6 µM; with HOP-92 NSCLC, 3.8 µM; in the assay on MDA-MB-231 breast, more than 100 µM; with MDA-N, 28.3 µM; in the assay with MOLT-4 leukemia, 37.1 µM; in the assay on OVCAR-5 ovarian it was 34.1 µM. In addition, the TGI in the assay on OVCAR-8 ovarian was more than 100 µM; in the assay with RXF 393 renal, 21.1 µM; with SF-295 CNS it was 38 µM; in the assay on SK-MEL-5 melanoma, 25.7 µM; in the assay with SK-OV-3 ovarian, 58.9 µM; in the assay on SW-620 colon, 42.7 µM. The TGI turned out to be 37.3 µM with T-47D breast and 30.2 µM in the assay with UACC-62 melanoma.

Regarding `CO[C@H]1C[C@@H]2CC[C@@H](C)[C@@](O)(O2)C(=O)C(=O)N2CCCC[C@H]2C(=O)O[C@H]([C@H](C)C[C@@H]2CC[C@@H](OC(=O)C(C)(CO)CO)[C@H](OC)C2)CC(=O)[C@H](C)/C=C(\C)[C@@H](O)[C@@H](OC)C(=O)[C@H](C)C[C@H](C)/C=C/C=C/C=C/1C`, the TGI in the assay with EKVX NSCLC was more than 52.2 µM; in the assay on MDA-MB-231 breast, 31.2 µM; in the assay with MDA-N, more than 73.4 µM; in the assay with MOLT-4 leukemia, more than 100 µM; in the assay on OVCAR-5 ovarian it was more than 100 µM; in the assay on OVCAR-8 ovarian, more than 86.4 µM. Also, the TGI in the assay with RXF 393 renal is 21.9 µM; in the assay with SF-295 CNS it was more than 100 µM; with SK-MEL-5 melanoma, more than 100 µM; in the assay with SK-OV-3 ovarian it was more than 100 µM; with SW-620 colon it was more than 100 µM; in the assay with T-47D breast, more than 100 µM. Also, in the assay with UACC-62 melanoma, the TGI was 29.7 µM. The GI50 in the assay on HOP-92 NSCLC was 1580 nM; in the assay with MDA-MB-231 breast, 2620 nM; with OVCAR-5 ovarian, more than 59.1 µM; in the assay with OVCAR-8 ovarian, less than 14.3 nM; in the assay with SK-MEL-5 melanoma, 1870 nM.

Take `COc1cc(/C=C2\CCC(C)c3c2nc(N)c(C#N)c3-c2cc(OC)c(OC)c(OC)c2)cc(OC)c1OC` (stereo not drawn): the TGI in the assay on EKVX NSCLC, with HOP-92 NSCLC, in the assay with MDA-MB-231 breast, in the assay on MDA-N, with MOLT-4 leukemia and in the assay with OVCAR-5 ovarian was more than 100 µM in each case. For the same molecule, the TGI in the assay with OVCAR-8 ovarian is 40.3 µM; in the assay with RXF 393 renal, more than 100 µM; with SK-MEL-5 melanoma, more than 100 µM; in the assay with SK-OV-3 ovarian it was more than 100 µM; with SW-620 colon, more than 100 µM; with UACC-62 melanoma, more than 100 µM.

For the molecule `CN(C)Cc1cc(C(=O)/C=C/c2c(Cl)cccc2Cl)cc(CN(C)C)c1O`, the TGI was 23.2 µM with EKVX NSCLC; 9.06 µM with HOP-92 NSCLC; 15.1 µM in the assay on MDA-MB-231 breast; 12.7 µM in the assay on MDA-N; 30.3 µM with MOLT-4 leukemia; 32.2 µM in the assay with OVCAR-5 ovarian. Further, the TGI is 15.2 µM with OVCAR-8 ovarian; 18.6 µM with RXF 393 renal; 23.1 µM in the assay with SF-295 CNS; 13.9 µM with SK-MEL-5 melanoma; 13.9 µM in the assay with SW-620 colon; 42 µM in the assay on T-47D breast.

For `O=S(=O)([N-]c1nc2ccccc2nc1-[n+]1ccccc1)c1ccccc1`, the TGI with BT-549 breast was more than 100 µM; in the assay with EKVX NSCLC, more than 100 µM; in the assay on HOP-92 NSCLC, more than 100 µM; in the assay with MDA-MB-231 breast, 84.8 µM; in the assay on MOLT-4 leukemia, 95.4 µM; in the assay with OVCAR-5 ovarian, more than 100 µM. The TGI with OVCAR-8 ovarian, in the assay with RXF 393 renal, in the assay with SF-295 CNS, in the assay with SK-MEL-5 melanoma, with SK-OV-3 ovarian and with T-47D breast was more than 100 µM in each case. In the assay with UACC-62 melanoma, this molecule yielded a TGI of more than 100 µM.

Consider `Cc1cc(Cl)ccc1NC(=O)/C(CC(=O)CC(c1ccccc1)c1c(O)c2ccccc2oc1=O)=N\O` (stereo not drawn), for which the TGI in the assay on BT-549 breast, in the assay with EKVX NSCLC, in the assay on HOP-92 NSCLC, in the assay with MDA-MB-231 breast, in the assay with MDA-N and in the assay on MOLT-4 leukemia was more than 100 µM each time. For the same molecule, the TGI in the assay on OVCAR-5 ovarian, in the assay on OVCAR-8 ovarian, with RXF 393 renal, in the assay on SF-295 CNS, in the assay with SK-MEL-5 melanoma and in the assay on SK-OV-3 ovarian was more than 100 µM in each case. Moreover, the TGI in the assay on SW-620 colon and in the assay on UACC-62 melanoma was more than 100 µM in each case.
